Patent publication US20210251963A1, “UREA DERIVATIVES FOR USE IN THE TREATMENT OF SUBJECTS WITH ELEVATED EXPRESSION AND/OR ACTIVITY OF SRPK1” (Scandion Oncology A/S, priority 2018, published 2021)

Columns and labels:
[1] = system: HT29 SN38 resistant colon cancer cells; test: Cell viability (MTT assay); type: cell-based; settings: for cell viability, % of untreated control cells: HT29 SN38 resistant
Procedure: (§1) SN38 was applied to a SN38 sensitive colon cancer cell line (“HT29 parental”) and to a SN38 resistant colon cancer cell line (“HT29 SN38 resistant”).
(§2) The Log Concentration (μM) used are—1 for SN38. Data represents cell viability data (MTT assay) and cells were incubated with drugs for 72 hours.
The Log Concentrations (μM) used are—1 for SN38, and 1.5 for both Srpkin340 and Sphinx 31. Data represents cell viability data (MTT assay) and cells were incubated with drugs for 72 hours.

[2] = system: HT29 parental colon cancer cells; test: Cell viability (MTT assay); type: cell-based; settings: SN38 Log Concentration (μM) -1, 72 hours
Procedure: as §1, §2

SMILES	restoration of SN38 sensitivity in SN38 resistant HT29 colon cancer cells ([1]; Log Concentration (μM) 1.5 of inhibitor with SN38 -1, 72 hours)	cell viability, % of untreated control cells [2] [%]	cell viability, % of untreated control cells ([1]; SN38 0.1 μM alone, 72 hours, Example 4) [%]	cell viability, % of untreated control cells ([1]; SN38 Log Concentration (μM) -1, 72 hours, Example 3) [%]
O=C(Nc1cc(C(F)(F)F)ccc1N1CCN(Cc2ccccn2)CC1)c1ccc(-c2ccncc2)o1 [Sphinx31, reference compound]	can restore the SN38 sensitivity			
CCc1c2c(nc3ccc(O)cc13)-c1cc3c(c(=O)n1C2)COC(=O)[C@]3(O)CC [SN38, reference compound]		27	75	73
